Experimental data as given in article PMC9916866 (International Journal of Molecular Sciences, 2023).
Like-named read-outs stand apart in the source and are kept apart here. Positions of bridges follow the written chain, without caps; N, C: chain ends. Residues, ends and D or L forms follow the SMILES beside them.

Legend:
[1] = molecular target: T1, human AT2 receptor (Homo sapiens, UniProt P50052); assay: biochemical; assay type: binding
T1 construct: expressed in transfected cells; host or cells: HEK293T
T1 sequence (P50052 1-363): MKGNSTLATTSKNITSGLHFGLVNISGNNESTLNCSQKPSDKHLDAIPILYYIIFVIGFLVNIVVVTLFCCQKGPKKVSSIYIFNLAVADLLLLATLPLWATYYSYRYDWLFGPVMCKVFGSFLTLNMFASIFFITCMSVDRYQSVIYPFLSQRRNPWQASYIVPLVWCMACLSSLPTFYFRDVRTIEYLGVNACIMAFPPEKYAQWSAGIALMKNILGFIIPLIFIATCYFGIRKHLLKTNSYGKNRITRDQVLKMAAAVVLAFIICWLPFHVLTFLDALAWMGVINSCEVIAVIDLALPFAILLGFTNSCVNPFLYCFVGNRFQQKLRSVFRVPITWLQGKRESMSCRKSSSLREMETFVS

[2] = molecular target: T2, AT1 receptor (Rattus norvegicus, UniProt P25095); assay: biochemical; assay type: binding; conditions: read-out: inhibition of the specific labelling by Cy5-AngII, AT1
[3] = molecular target: T2, AT1 receptor; assay: cell-based
[4] = molecular target: T2, AT1 receptor; assay: cell-based; conditions: read-out: inhibition of AngII-induced ERK1/2 phosphorylation (western blot)
[5] = molecular target: T3, AT1 receptor (Homo sapiens, UniProt P30556); assay: cell-based
T3 sequence (P30556 1-359): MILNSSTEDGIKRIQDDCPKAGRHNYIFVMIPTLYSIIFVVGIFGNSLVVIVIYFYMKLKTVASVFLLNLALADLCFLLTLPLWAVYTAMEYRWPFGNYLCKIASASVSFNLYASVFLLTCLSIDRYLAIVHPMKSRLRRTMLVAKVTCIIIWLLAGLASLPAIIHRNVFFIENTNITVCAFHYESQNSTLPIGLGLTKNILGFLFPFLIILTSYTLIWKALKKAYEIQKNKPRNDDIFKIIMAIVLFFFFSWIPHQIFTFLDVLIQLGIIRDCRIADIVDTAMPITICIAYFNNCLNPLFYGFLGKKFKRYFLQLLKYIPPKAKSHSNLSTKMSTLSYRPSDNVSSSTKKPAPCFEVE

[6] = molecular target: T3, AT1 receptor; assay: biochemical; assay type: binding; design: expressed in transfected cells; host or cells: HEK293T
[7] = molecular target: T3, AT1 receptor; assay: cell-based; assay type: cell-based; design: expressed in transfected cells; host or cells: HEK293T

T2 sequence (P25095 whole entry, looked up): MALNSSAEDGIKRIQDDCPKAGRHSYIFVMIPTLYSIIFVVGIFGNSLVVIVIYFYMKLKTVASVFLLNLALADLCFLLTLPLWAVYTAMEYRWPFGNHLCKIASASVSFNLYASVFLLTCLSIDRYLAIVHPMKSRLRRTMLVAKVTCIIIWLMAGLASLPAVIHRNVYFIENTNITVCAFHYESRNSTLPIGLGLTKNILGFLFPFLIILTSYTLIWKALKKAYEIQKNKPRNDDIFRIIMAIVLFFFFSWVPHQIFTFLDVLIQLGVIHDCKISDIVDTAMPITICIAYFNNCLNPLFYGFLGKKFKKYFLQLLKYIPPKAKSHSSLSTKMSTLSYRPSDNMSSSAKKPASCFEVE

CC(C)[C@@H]1NC(=O)[C@H](Cc2c[nH]c3ccccc23)NC(=O)[C@H](Cc2ccccc2)NC(=O)[C@H](Cc2c[nH]cn2)NC(=O)[C@@H](N)CSSC[C@@H](C(=O)N2CCC[C@H]2C(=O)O)NC1=O [A-CTX-cMila] (H-CHFWVCP-OH; disulfide 1-6)
Ki [1]: 27.5 ± 2.1 µM | inhibition at 100 µM [2]: 74% | IC50 [3]: 23.7 ± 4.6 µM | inhibition at 20 µM [4]: 89% | IC50 [5]: 15.6 ± 3 µM | Kb ([5]; KB, β-arrestin 2 recruitment): 4.1 ± 3.1 µM | Kb ([5]; pA2, β-arrestin 2 recruitment): 2 µM | Ki [6]: 0.32 ± 0.13 µM | IC50 [7]: 28.5 ± 12 µM
